Where two headings read alike, the source gives them in different places.
Legend:
MAIDS virus [1] = assay: Adoptive transfer of CD4+CD25+/- cells into MAIDS infected day 14 Vinblastine treated mice; type: in vivo; conditions: MAIDS-infected day 14 Vb-treated recipients given CD4+CD25+ or CD4+CD25- cells from uninfected donors
Text: An adoptive transfer experiment was designed to directly test the hypothesis that CD4+CD25+ T cells are functioning as the regulator cells in the murine AIDS model. The same approach used to determine that the regulator cells are CD4+ T cells was used to test whether the CD4+CD25+ subset are the target of day 14 Vinblastine treatment. […] 2.0x10^6 cells of the regulator CD4+CD25+ phenotype were purified from single cell suspensions of donor spleens using MACS beads (Miltenyi Biotec) using two positive selection steps. The cells were then tested for purity by flow cytometry (both CD4+CD25+ and CD4+CD25- fractions were of > 90 % purity) and viability using trypan blue exclusion prior to transfer into uninfected (control) and MAIDS infected day 14 Vinblastine treated mice. CD4+CD25- cells were also transferred to allow that the regulator cells may not present in the CD25+ fraction and also to allow for the possibility that these putative regulator cells may lose CD25 expression as they expand and become activated as was reported by Gavin et al., 2002.
Mice receiving adoptive transfer of cells were either uninfected (control) or MAIDS infected and day 14 Vinblastine treated to examine whether the transfer of cells would result in disease progression. […] Disease progression was assessed by spleen weight at 10 weeks post MAIDS infection. […]

[2] = test system: LP-BM5 murine leukemia virus (MuLV); assay: MAIDS development after a single dose of vinblastine at different times post infection (spleen weight, histology, FACS analysis); type: in vivo, C57BL/6 mice
Text: A murine AIDS (MAIDS) pathology induced by LP-BM5 murine leukemia virus (MuLV) in susceptible mice is an effective tool to investigate mechanisms of retrovirus-induced immunodeficiency. […] Infection of a susceptible strain such as C57BL/6 mice with LP-BM5 leads to chronic splenomegaly, hypergammaglobulinaemia and development of immunodeficiency in both T and B cells. In vitro, there is a progressive impairment in the responsiveness of T-cells and B-cells to mitogenic or specific antigenic stimuli. In vivo, infected mice become increasingly susceptible to challenge with a variety of opportunistic organisms and can develop B-cell lymphoma. Deaths are first observed at 8-10 weeks post-infection (pi), and all mice die within 24 weeks (Figure 1). These alterations in immune function reflect complex changes in the phenotype and function of all components of the immune network.
The treatment with a single dose of the anti-mitotic agent vinblastine (Vb) at different times pi is able to prevent the development/progression of MAIDS. […] Clearly, the Vb treatment is remarkably therapeutic when administered at 6 hr or 14 days pi with 100% (10/10) and 74% (20/27) of mice, respectively, showing no signs of MAIDS development at 10 weeks pi (as determined by spleen weight, histology and FACS analysis). […] Additional experiments have provided results of 100% of mice having no signs of MAIDS development at least 12 months after Vb treatment 14 days pi (data not shown). Although not as pronounced as the protection seen after day 14 treatment, moderate protection from MAIDS development was still observed. […] The total protection from MAIDS development seen in mice given Vb at 6 hrs pi is not unexpected as the virus replicates in actively replicating cells which are the target of the anti-mitotic drug thus any cells infected with the virus are killed by the Vb preventing the virus from rapidly establishing an infection in the host. However, the highly protective effect observed after a single treatment with Vb at 14 days pi is quite remarkable as, by this stage, the viral infection is well established and the early disease processes are well underway. We propose that this highly therapeutic effect is due to the Vb targeting a particular subset of immune regulator cells during their expansion phase and thereby altering the immune response to the viral infection. […] This leads to long term disease free survival for many months post-infection and treatment.
Spleens from the Day 14 pi Vb treated mice as well as infected and uninfected control mice were weighed and examined histologically. The splenic architecture of all MAIDS infected mice was profoundly disorganised as previously reported (Hartley et al., 1989).

[3] = test system: CD4^+ T cells and CD25^+CD4^+ T cells; assay: Direct FACS analysis of spleen cells following Vb therapy on day 14 post infection; type: in vivo, mice; conditions: spleens collected 48 hours post Vb treatment
Method: FACS analysis of CD4^+ and CD8^+ T cells prepared from spleens of mice treated with Vb on Day 14 pi was performed (Figure 6). CD25^+CD4^+ T cells were also examined as they have recently been identified as having an important regulatory function in mouse models of autoimmune disease and tumour immunology (Takahashi et al., 1998; Shimizu et al., 1999). It is possible that these cells may play a role in the regulation of the immune response to MAIDS. Day 14 pi and uninfected control mice were given Vb therapy and the spleens collected at 48 hours post Vb treatment.

MAIDS virus [4] = assay: Rechallenge with MAIDS virus following protective vinblastine therapy; type: in vivo, mice; conditions: Vb at day 14 pi, rechallenged at 3 or 8 weeks post Vb treatment; assessed at 20 weeks
Text: To determine if mice protected from MAIDS by the day 14 pi Vb treatment develop an immune response which would then protect them from a subsequent rechallenge with the MAIDS virus groups of mice, given the Vb therapy at day 14 pi, were rechallenged with the MAIDS virus at 3 or 8 weeks post Vb treatment. […] This is not an unexpected result as the dominant immunosuppression by the regulator population of cells would have been restored as a consequence of the immune effector response to the second (untreated) infection.

murine T cell lymphoma = conditions: cited from earlier work
MAIDS virus [5] = assay: Spleen cell transfer into Vb-treated MAIDS infected mice; type: in vivo
Text: The experiments illustrated in Figure 7 were designed to determine if a single dose of Vb, administered at 14 days pi, is eliminating a population of expanding CD4^+ regulator T cells and thereby releasing effector cells from down-regulation and clearing the host of the MAIDS virus.
Mice were infected with MAIDS, received day 14 pi Vb treatment and then received an adoptive transfer of ∼10^7 spleen cells from donor mice prepared as outlined in Figure 7. For each experiment [designated (I), (II) and (III)] groups consisted of 7 recipient mice and 9 donor mice. Mice in Group I received whole spleens from infected mice that had not received any Vb treatment. Mice in Group II received whole spleen cell preparations, from infected mice, that had been depleted of CD4^+ cells using a FACS cell sorter after staining with fluorochrome-labeled anti-CD4 monoclonal antibody. […] Mice in Group III received whole spleens from infected donor mice that also received Vb treatment on day 14 pi.

Structure (SMILES): CC[C@]1(O)C[C@@H]2CN(CCc3c([nH]c4ccccc34)[C@@](C(=O)OC)(c3cc4c(cc3OC)N(C)[C@H]3[C@@](O)(C(=O)OC)[C@H](OC(C)=O)[C@]5(CC)C=CCN6CC[C@]43[C@@H]65)C2)C1 [Vb, vinblastine]
- disease progression (spleen weight at 10 weeks post MAIDS infection) after adoptive cell transfer (MAIDS virus [1]): disease progression was readily apparent
- mice protected from any splenomegaly at 20 weeks pi ([2]; Vb at day 14 pi, 4/5 mice): 80%
- mice having no signs of MAIDS development at least 12 months after Vb treatment ([2]; Vb treatment 14 days pi, additional experiments, data not shown): 100%
- cellular proportions (CD4^+, CD8^+ and B cells) and distributions of spleen cells by FACS analysis ([2]; day 14 pi Vb treated mice at 10 weeks pi, preliminary, data not shown): like those observed in normal uninfected mice
- splenic architecture (spleen histology) ([2]; day 14 pi Vb treated mice with normal spleen weights (below 0.25g), 10 weeks pi): indistinguishable from that of uninfected control mice
- mice showing no signs of MAIDS development at 10 weeks pi ([2]; single 6mg/kg i.p. dose given at 6 hr pi, 10/10 mice, by spleen weight, histology and FACS analysis): 100%
- mice with protective effect (no signs of MAIDS development at 10 weeks pi) ([2]; single 6mg/kg i.p. dose given at 6 days pi, 6/13 mice): 46%
- mice showing no signs of MAIDS development at 10 weeks pi ([2]; single 6mg/kg i.p. dose given at 14 days pi, 20/27 mice): 74%
- protection against MAIDS development ([2]; single 6mg/kg i.p. dose given at day 2 pi): no protection against MAIDS development
- protection against MAIDS development ([2]; single 6mg/kg i.p. dose given at day 7 pi): no protection against MAIDS development
- effect on spleen cell subsets ([3]; Vb at day 14 pi and in uninfected controls): all cell subsets are reduced
- cell subsets preferentially targeted in MAIDS infected mice (uninfected to infected ratios) ([3]; Vb at day 14 pi): CD4^+ T cells and CD25^+CD4^+ T cells that are preferentially targeted
- protection from viral rechallenge (MAIDS virus [4]): not protected from viral rechallenge
- effect on tumour (murine T cell lymphoma; single dose at day 10 following tumour inoculation): enhancement
- effect on tumour (murine T cell lymphoma; single dose at days 4, 6, 13 and 15 following tumour inoculation): regression
- protective effect of Vb against MAIDS development after spleen cell transfer (MAIDS virus [5]; Group I: day 14 pi Vb, then ~10^7 whole spleen cells from MAIDS infected donors without Vb): completely prevented Vb from protecting mice from MAIDS development
- protective effect of Vb against MAIDS development after spleen cell transfer (MAIDS virus [5]; Group II: donor spleen cells depleted of CD4^+ cells by FACS sorting before transfer): the protective effect of Vb was not overcome
- protective effect of Vb against MAIDS development after spleen cell transfer (MAIDS virus [5]; Group III: spleen cells from MAIDS infected donors also given day 14 Vb): fully protected from MAIDS development

Reference: patent EP1482971B1, “STRATEGY FOR RETROVIRAL IMMUNOTHERAPY” (priority 2002, dated 2003)
